{
  "source": "paper PMC4604124",
  "about": "“In Vitro Characterization of the Pharmacological Properties of the Anti-Cancer Chelator, Bp4eT, and Its Phase I Metabolites” (PLoS ONE, 2015)",
  "key": {"MCF-7 cells": {"test_system": "MCF-7 cells", "assay": "Viability (viabilita) used to normalise caspase activity;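 for all read-outs here: compound tested at 100 nM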", "assay_type": "cell-based, human", "settings": "kontrola = 100", "description": "Supplement pone.0139929.s002.zip/caspases activity.xlsx, sheet \"results_viability\""}, "caspase 8": {"test_system": "caspase 8", "assay": "Caspase activity, luminescent kit, caspase 8;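 for all read-outs here: MCF-7 cells treated at 100 nM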", "assay_type": "cell-based, human", "settings": "for kaspáza 8, raw signal / kaspáza 8, signal / viabilita: individual experiments by date; for kaspáza 8, raw signal, průměry / kaspáza 8, % kontroly / kaspáza 8, signal / viabilita, průměry: mean; for kaspáza 8, % kontroly / kaspáza 8, signal / viabilita / kaspáza 8, signal / viabilita, průměry: normalised to viability"}, "[1]": {"assay": "Ascorbate oxidation assay (redox activity of iron complexes);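 for %Fe 30min (ascorbate oxidation, Fe 100%), průměr: IBE 3 means excess free chelator over iron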;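 for %Fe 30min (ascorbate oxidation, Fe 100%): IBE 3 means excess free chelator over iron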;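 for %Fe 30min (ascorbate oxidation, Fe = 100%), průměr (mean): IBE 1 means iron-binding equivalents giving fully coordinated iron-chelator complexes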;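 for %Fe 30min (ascorbate oxidation, Fe = 100%), single replicates: IBE 1 means iron-binding equivalents giving fully coordinated iron-chelator complexes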;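 for %Fe 30min: ascorbate oxidation as % of the Fe control (Fe 100%): IBE 0.1 means iron-binding equivalents with iron in excess over chelator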;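 for Change of absorbance, odečet 0 (time 0 subtracted), čas 10, průměr: IBE 3 means excess free chelator over 10 µM FeCl3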;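 for Change of absorbance, odečet 0 (time 0 subtracted), čas 10: IBE 3 means excess free chelator over 10 µM FeCl3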;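 for Change of absorbance, odečet 0 (time 0 subtracted), čas 20, průměr: 100 µM ascorbate with 10 µM FeCl3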;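 for Change of absorbance, odečet 0 (time 0 subtracted), čas 20: 100 µM ascorbate with 10 µM FeCl3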;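 for Change of absorbance, odečet 0 (time 0 subtracted), čas 30, průměr: 100 µM ascorbate with 10 µM FeCl3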;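 for Change of absorbance, odečet 0 (time 0 subtracted), čas 30: 100 µM ascorbate with 10 µM FeCl3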;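 for odečet 0 (reading minus time 0 reading) at čas 20, single replicates: IBE 1 means fully coordinated iron chelator complexes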;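 for odečet 0 (reading minus time 0 reading) at čas 30, průměr (mean): IBE 1 means fully coordinated iron chelator complexes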;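 for odečet 0 (reading minus time 0 reading) at čas 30, single replicates: IBE 1 means fully coordinated iron chelator complexes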;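 for raw reading at čas 20 (time 20), průměr (mean): IBE 1 means fully coordinated iron chelator complexes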;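 for raw reading at čas 20 (time 20), single replicates: IBE 1 means fully coordinated iron chelator complexes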;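 for raw reading at čas 30 (time 30), průměr (mean): IBE 1 means fully coordinated iron chelator complexes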;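 for raw reading at čas 30 (time 30), single replicates: IBE 1 means fully coordinated iron chelator complexes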", "assay_type": "biochemical"}, "[2]": {"settings": "sheet IBE 1, time 10, replicates"}, "[3]": {"settings": "sheet IBE 1, time 20, replicates"}, "[4]": {"settings": "sheet IBE 1, time 30, replicates"}},
  "note": "Several values for one entry are separate records, joined by “and”; a condition that tells them apart may be missing. Equal entries are not always repeated.",
  "data": [
    {"smiles": "CCNC(=O)NN=C(c1ccccc1)c1ccccn1", "note": "[E-Bp4eS, 2-benzoylpyridine 4-ethylsemicarbazone]", "values": [
      {"measurement": "viabilita", "setting": "MCF-7 cells; 3 hodiny", "value": 98.187},
      {"measurement": "viabilita", "setting": "MCF-7 cells; 24 hodin", "value": 99.4673},
      {"measurement": "viabilita", "setting": "MCF-7 cells; 72 hodin", "value": 97.81},
      {"measurement": "kaspáza 8, raw signal", "setting": "caspase 8; 3 hodiny", "value": "1819 and 1041 and 1191.5 and 952.5"},
      {"measurement": "kaspáza 8, raw signal, průměry", "setting": "caspase 8; 3 hodiny", "value": 1251},
      {"measurement": "kaspáza 8, % kontroly", "setting": "caspase 8; 3 hodiny", "value": 93.96, "unit": "% kontroly"},
      {"measurement": "kaspáza 8, signal / viabilita", "setting": "caspase 8; 3 hodiny", "value": "18.5259 and 10.6022 and 12.135 and 9.701"},
      {"measurement": "kaspáza 8, signal / viabilita, průměry", "setting": "caspase 8; 3 hodiny", "value": 12.741},
      {"measurement": "kaspáza 8, raw signal", "setting": "caspase 8; 24 hodin", "value": "1530 and 1548 and 1983.5 and 1503"},
      {"measurement": "kaspáza 8, raw signal, průměry", "setting": "caspase 8; 24 hodin", "value": 1641.12},
      {"measurement": "kaspáza 8, % kontroly", "setting": "caspase 8; 24 hodin", "value": 104.70, "unit": "% kontroly"},
      {"measurement": "kaspáza 8, signal / viabilita", "setting": "caspase 8; 24 hodin", "value": "15.3819 and 15.5629 and 19.9412 and 15.1105"},
      {"measurement": "kaspáza 8, signal / viabilita, průměry", "setting": "caspase 8; 24 hodin", "value": 16.4991},
      {"measurement": "kaspáza 8, raw signal", "setting": "caspase 8; 72 hodin", "value": "6786.5 and 6488.5 and 6545 and 6983"},
      {"measurement": "kaspáza 8, raw signal, průměry", "setting": "caspase 8; 72 hodin", "value": 6700.75},
      {"measurement": "kaspáza 8, % kontroly", "setting": "caspase 8; 72 hodin", "value": 98.51, "unit": "% kontroly"},
      {"measurement": "kaspáza 8, signal / viabilita", "setting": "caspase 8; 72 hodin", "value": "69.3845 and 66.3378 and 66.9154 and 71.3935"},
      {"measurement": "kaspáza 8, signal / viabilita, průměry", "setting": "caspase 8; 72 hodin", "value": 68.5078},
      {"measurement": "%Fe 30min: ascorbate oxidation as % of the Fe control (Fe 100%)", "setting": "[1]; IBE 0.1, 30 min, mean (průměr)", "value": 110.6, "unit": "%"},
      {"measurement": "Change of absorbance after subtraction of time 0 (odečet 0)", "setting": "[1]; IBE 0.1, time 10, mean (průměr)", "value": -0.03606},
      {"measurement": "Change of absorbance after subtraction of time 0 (odečet 0)", "setting": "[1]; IBE 0.1, time 20, mean (průměr)", "value": -0.07143},
      {"measurement": "Change of absorbance after subtraction of time 0 (odečet 0)", "setting": "[1]; IBE 0.1, time 30, mean (průměr)", "value": -0.1048},
      {"measurement": "Absorbance (ascorbate, λ = 265 nm)", "setting": "[1]; IBE 0.1, čas 0 (time 0), mean (průměr)", "value": 0.8403},
      {"measurement": "Absorbance (ascorbate, λ = 265 nm)", "setting": "[1]; IBE 0.1, čas 10 (time 10), mean (průměr)", "value": 0.8042},
      {"measurement": "Absorbance (ascorbate, λ = 265 nm)", "setting": "[1]; IBE 0.1, čas 20 (time 20), mean (průměr)", "value": 0.7689},
      {"measurement": "Absorbance (ascorbate, λ = 265 nm)", "setting": "[1]; IBE 0.1, čas 30 (time 30), mean (průměr)", "value": 0.7355},
      {"measurement": "Absorbance (ascorbate, λ = 265 nm)", "setting": "[1]; IBE 0.1, čas 30 (time 30), single wells", "value": "0.7395 and 0.7451 and 0.7441 and 0.7317 and 0.7361 and 0.735 and 0.7279 and 0.7282"},
      {"measurement": "%Fe 30min (ascorbate oxidation, Fe = 100%), průměr (mean)", "setting": "[1]; sheet IBE 1, 30min, Fe 100%, mean", "value": 115.7, "unit": "%"},
      {"measurement": "%Fe 30min (ascorbate oxidation, Fe = 100%), single replicates", "setting": "[1]; sheet IBE 1, 30min, Fe 100%, replicates", "value": "118.6% and 122% and 108.4% and 125.1% and 134.4% and 115.2% and 110.6% and 115.1% and 91.71%"},
      {"measurement": "raw reading at čas 0 (time 0), průměr (mean)", "setting": "[1]; sheet IBE 1, time 0, mean of 9 readings", "value": 0.822},
      {"measurement": "raw reading at čas 0 (time 0), single replicates", "setting": "[1]; sheet IBE 1, time 0, replicates of 2014-03-24 (two runs) and 2014-03-25", "value": "0.8574 and 0.8322 and 0.8144 and 0.8238 and 0.8106 and 0.8047 and 0.8172 and 0.7979 and 0.8393"},
      {"measurement": "odečet 0 (reading minus time 0 reading) at čas 10, průměr (mean)", "setting": "[1]; sheet IBE 1, time 10, mean", "value": -0.03765},
      {"measurement": "raw reading at čas 10 (time 10), průměr (mean)", "setting": "[1]; sheet IBE 1, time 10, mean of 9 readings", "value": 0.7843},
      {"measurement": "odečet 0 (reading minus time 0 reading) at čas 10, single replicates", "setting": "[1]; [2]", "value": "-0.03642 and -0.03472 and -0.03462 and -0.04217 and -0.04047 and -0.03637 and -0.03597 and -0.05027 and -0.02787"},
      {"measurement": "raw reading at čas 10 (time 10), single replicates", "setting": "[1]; [2]", "value": "0.778 and 0.7891 and 0.776 and 0.7626 and 0.7768 and 0.7616 and 0.8033 and 0.8071 and 0.8043"},
      {"measurement": "odečet 0 (reading minus time 0 reading) at čas 20, průměr (mean)", "setting": "[1]; sheet IBE 1, time 20, mean", "value": -0.07141},
      {"measurement": "raw reading at čas 20 (time 20), průměr (mean)", "setting": "[1]; sheet IBE 1, time 20, mean of 9 readings", "value": 0.7506},
      {"measurement": "odečet 0 (reading minus time 0 reading) at čas 20, single replicates", "setting": "[1]; [3]", "value": "-0.07064 and -0.07124 and -0.06354 and -0.07877 and -0.08537 and -0.07037 and -0.07092 and -0.07622 and -0.05562"},
      {"measurement": "raw reading at čas 20 (time 20), single replicates", "setting": "[1]; [3]", "value": "0.7438 and 0.7526 and 0.7471 and 0.726 and 0.7319 and 0.7276 and 0.7684 and 0.7812 and 0.7766"},
      {"measurement": "odečet 0 (reading minus time 0 reading) at čas 30, průměr (mean)", "setting": "[1]; sheet IBE 1, time 30, mean", "value": -0.1028},
      {"measurement": "raw reading at čas 30 (time 30), průměr (mean)", "setting": "[1]; sheet IBE 1, time 30, mean of 9 readings", "value": 0.7192},
      {"measurement": "odečet 0 (reading minus time 0 reading) at čas 30, single replicates", "setting": "[1]; [4]", "value": "-0.1024 and -0.1054 and -0.09363 and -0.1081 and -0.1161 and -0.09952 and -0.1043 and -0.1086 and -0.08655"},
      {"measurement": "raw reading at čas 30 (time 30), single replicates", "setting": "[1]; [4]", "value": "0.712 and 0.7184 and 0.717 and 0.6966 and 0.7011 and 0.6984 and 0.735 and 0.7488 and 0.7457"},
      {"measurement": "%Fe 30min (ascorbate oxidation, Fe 100%), průměr", "setting": "[1]; sheet IBE 3, 30min, Fe alone = 100%, mean (průměr) of the 9 replicates", "value": 117.9, "unit": "%"},
      {"measurement": "%Fe 30min (ascorbate oxidation, Fe 100%)", "setting": "[1]; sheet IBE 3, 30min, Fe alone = 100%, single replicates", "value": "124.2% and 115.8% and 108.1% and 126.9% and 132.9% and 126% and 114.7% and 109.6% and 103.1%"},
      {"measurement": "Change of absorbance, odečet 0 (time 0 subtracted), čas 10, průměr", "setting": "[1]; sheet IBE 3, time 10 minus time 0, mean (průměr)", "value": -0.04086},
      {"measurement": "Change of absorbance, odečet 0 (time 0 subtracted), čas 10", "setting": "[1]; sheet IBE 3, time 10 minus time 0, single replicates", "value": "-0.04474 and -0.03234 and -0.03864 and -0.04417 and -0.05097 and -0.04457 and -0.03984 and -0.03894 and -0.03354"},
      {"measurement": "Change of absorbance, odečet 0 (time 0 subtracted), čas 20, průměr", "setting": "[1]; sheet IBE 3, time 20 minus time 0, mean (průměr)", "value": -0.076},
      {"measurement": "Change of absorbance, odečet 0 (time 0 subtracted), čas 20", "setting": "[1]; sheet IBE 3, time 20 minus time 0, single replicates", "value": "-0.0807 and -0.0703 and -0.071 and -0.08341 and -0.08461 and -0.08331 and -0.07425 and -0.07045 and -0.06595"},
      {"measurement": "Change of absorbance, odečet 0 (time 0 subtracted), čas 30, průměr", "setting": "[1]; sheet IBE 3, time 30 minus time 0, mean (průměr)", "value": -0.109},
      {"measurement": "Change of absorbance, odečet 0 (time 0 subtracted), čas 30", "setting": "[1]; sheet IBE 3, time 30 minus time 0, single replicates", "value": "-0.1153 and -0.1075 and -0.1003 (2×) and -0.1178 and -0.1233 and -0.1169 and -0.105 and -0.09439"}
    ]}
  ]
}
